# Assay results from ChEMBL document CHEMBL1201862, “PubChem BioAssay data set” (2004).
# Values joined by “and” are separate entries in the source; they are usually repeats but may differ in a detail not shown here. Identical values can stand only once. Active and inactive are the calls of the source.
# Key:
# [1] = system: Streptococcus sp. 'group A'; assay: Streptococcus pyogenes SK(-)GAS viability under kanamycin – luminescence, BacTiterGlo, confirmation, counter-screen for streptokinase expression inhibitor project, dose response (AID 1900); assay type: functional, organism-based
# [2] = Luminescence Cell-Based Dose Response HTS to Identify Activators of Luciferase Translation or Activity in H4 […] Cells. [Related pubchem assays: 1829 (Project Summary), 1814 (Primary HTS)]; assay type: functional
# Streptokinase A = target: T1, Streptokinase A (Streptococcus pyogenes serotype M1, UniProt P10520); assay: viability-normalized secreted streptokinase activity reduction – plasminogen activation absorbance, OD405, dose response (AID 1914); assay type: functional, Streptococcus pyogenes M1 GAS;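 note: secreted streptokinase activity via plasminogen activation per viability signal from cell pellet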
# T1 sequence (P10520 whole entry): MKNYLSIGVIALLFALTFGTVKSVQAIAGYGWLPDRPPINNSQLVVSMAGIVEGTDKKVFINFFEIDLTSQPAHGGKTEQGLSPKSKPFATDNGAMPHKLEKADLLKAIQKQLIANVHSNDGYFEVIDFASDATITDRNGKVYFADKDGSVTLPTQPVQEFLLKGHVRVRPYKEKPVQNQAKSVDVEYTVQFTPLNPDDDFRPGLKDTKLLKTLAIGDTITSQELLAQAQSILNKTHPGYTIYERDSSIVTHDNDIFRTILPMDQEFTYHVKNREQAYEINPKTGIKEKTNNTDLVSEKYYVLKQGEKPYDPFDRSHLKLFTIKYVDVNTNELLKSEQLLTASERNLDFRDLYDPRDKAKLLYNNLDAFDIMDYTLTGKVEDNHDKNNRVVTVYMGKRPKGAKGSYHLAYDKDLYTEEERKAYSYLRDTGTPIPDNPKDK
# H4 = assay: Luminescence Cell-Based Dose Response HTS to Identify Activators of 5'UTR Stem-Loop Driven Prion Protein mRNA Translation in H4 Neuroglioblastoma Cells. [Related pubchem assays: 1829 (Project Summary), 1814 (Primary HTS)]; assay type: functional; conditions: Homo sapiens
# [3] = target: T2, Neuropeptide Y receptor type 1 (Homo sapiens, UniProt P25929); assay: IC50 of human NPY-Y1 blockers – cell-based, dose response (AID 1277); assay type: functional
# T2 sequence (P25929 whole entry): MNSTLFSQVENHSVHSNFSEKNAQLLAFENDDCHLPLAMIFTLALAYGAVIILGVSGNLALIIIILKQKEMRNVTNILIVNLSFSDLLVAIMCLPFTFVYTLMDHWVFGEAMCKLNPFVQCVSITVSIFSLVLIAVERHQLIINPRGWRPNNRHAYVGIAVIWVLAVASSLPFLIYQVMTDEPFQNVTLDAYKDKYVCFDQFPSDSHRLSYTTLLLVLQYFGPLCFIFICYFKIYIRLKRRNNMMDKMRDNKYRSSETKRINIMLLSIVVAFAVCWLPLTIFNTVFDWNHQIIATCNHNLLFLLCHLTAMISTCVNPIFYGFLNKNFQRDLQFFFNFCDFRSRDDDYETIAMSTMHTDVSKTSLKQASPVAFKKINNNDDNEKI
# [4] = target: T3, Neuropeptide Y receptor type 2 (Homo sapiens, UniProt P49146); assay: IC50 for human NPY-Y2 blockade – cell-based, counter-screen for NPY-Y1 antagonist project, dose response (AID 1278); assay type: functional
# T3 sequence (P49146 whole entry): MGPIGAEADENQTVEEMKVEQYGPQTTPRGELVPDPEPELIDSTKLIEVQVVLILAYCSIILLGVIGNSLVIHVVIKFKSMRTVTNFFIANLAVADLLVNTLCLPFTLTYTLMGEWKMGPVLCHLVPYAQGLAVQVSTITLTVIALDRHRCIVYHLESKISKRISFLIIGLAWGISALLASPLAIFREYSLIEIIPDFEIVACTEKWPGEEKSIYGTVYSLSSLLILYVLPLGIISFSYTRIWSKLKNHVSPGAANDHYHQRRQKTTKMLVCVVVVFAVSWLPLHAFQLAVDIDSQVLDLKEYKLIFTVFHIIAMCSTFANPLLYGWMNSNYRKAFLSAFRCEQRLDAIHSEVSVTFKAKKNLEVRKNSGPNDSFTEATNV
# Streptococcus = assay: GAS UMAA2166 growth inhibition – luminescence, BacTiterGlo, counter-screen for streptokinase expression inhibitor project, dose response (AID 1915); assay type: functional, organism-based;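 note: potency for reduction of bacterial viability or growth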
# [5] = target: T2, Neuropeptide Y receptor type 1; assay type: functional
# [6] = target: T3, Neuropeptide Y receptor type 2; assay type: functional, cell-based
# [7] = CCR5-tropic HIV-1 fusion blockers – cell-based, CCR5-tropic Env, dose response (AID 2279); assay type: functional
# [8] = A Cell Based Secondary Assay To Explore Cytotoxicity of Compounds that Sensitize Mycobacterium Tuberculosis to Beta-Lactam Antibiotics.; assay type: functional
# [9] = target: Induced myeloid leukemia cell differentiation protein Mcl-1 (Homo sapiens, UniProt Q07820); assay type: functional
# [10] = target: G-protein coupled receptor 55 (Homo sapiens, UniProt Q9Y2T6); assay: inhibition of LPI-stimulated GPR55 beta-arrestin translocation – imaging, U2OS, beta-arrestin-GFP, LPI agonist, primary screen (AID 2013); assay type: functional;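 note: antagonist potency measured as reduced agonist-driven arrestin aggregation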
# Beta-galactosidase [11] = target: T4, Beta-galactosidase (Escherichia coli, UniProt Q8VNN2); assay: detection-enzyme interference by beta-gal modulators – biochemical, E. coli enzyme, set 3, artefact control for CCR6 antagonist project, dose response (AID 504712); assay type: functional
# [12] = target: Eukaryotic translation initiation factor 4E (Mus musculus, UniProt P63073); assay: blockers of eIF4G binding by eIF4E – biochemical, TR-FRET, dose response (AID 855); assay type: functional;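 note: potency for disrupting eIF4E binding to eIF4GI seen as loss of FRET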
# Protein RecA = target: T5, Protein RecA (Mycobacterium tuberculosis, UniProt P9WHJ3); assay: Fluorescence Cell-Free Homogeneous Dose Retest to Identify Inhibitors of RecA-Intein Splicing Activity. [Related pubchem assays (depositor defined):AID2097, AID2223, AID489010, AID492950]; assay type: functional
# T5 sequence (P9WHJ3 whole entry): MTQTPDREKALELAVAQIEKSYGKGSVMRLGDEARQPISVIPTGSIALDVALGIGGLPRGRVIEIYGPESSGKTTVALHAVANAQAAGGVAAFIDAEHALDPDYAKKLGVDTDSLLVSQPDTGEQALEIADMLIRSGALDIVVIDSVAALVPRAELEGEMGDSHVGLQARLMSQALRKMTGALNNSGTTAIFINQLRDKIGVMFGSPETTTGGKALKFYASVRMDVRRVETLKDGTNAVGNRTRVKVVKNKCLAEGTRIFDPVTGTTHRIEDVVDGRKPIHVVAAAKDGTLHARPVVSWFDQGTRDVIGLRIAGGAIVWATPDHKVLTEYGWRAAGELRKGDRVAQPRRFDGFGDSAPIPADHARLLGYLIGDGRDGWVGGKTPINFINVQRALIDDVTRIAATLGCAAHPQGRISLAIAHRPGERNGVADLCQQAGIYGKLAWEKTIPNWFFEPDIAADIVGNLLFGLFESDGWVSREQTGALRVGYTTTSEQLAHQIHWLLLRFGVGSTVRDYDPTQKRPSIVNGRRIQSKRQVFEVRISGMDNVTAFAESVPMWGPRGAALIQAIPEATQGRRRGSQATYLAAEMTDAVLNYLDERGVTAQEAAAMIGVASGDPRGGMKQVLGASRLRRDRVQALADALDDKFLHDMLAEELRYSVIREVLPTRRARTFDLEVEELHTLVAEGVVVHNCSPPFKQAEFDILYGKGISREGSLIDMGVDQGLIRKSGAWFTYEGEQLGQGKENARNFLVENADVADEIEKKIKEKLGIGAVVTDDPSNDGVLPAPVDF
# [13] = target: T6, Voltage-gated N-type calcium channel alpha-1B subunit/Amyloid beta A4 precursor protein-binding family A member 1 (Homo sapiens, UniProt Q00975+Q02410); assay type: protein assay
# [14] = microbe, parasite or virus in culture; assay type: functional; conditions: Mycobacterium tuberculosis
# Nonstructural protein 1 = Nonstructural protein 1 (Influenza A virus, UniProt Q194T2); assay type: functional, Influenza A virus (A/California/07/2009(H1N1))
# [15] = target: T7, Replicative DNA helicase DnaB (Mycobacterium tuberculosis, UniProt P9WMR3); assay: DnaB intein splicing inhibitors, dose response, biochemical, cell-free fluorescence (AID 449749); assay type: functional
# T7 sequence (P9WMR3 whole entry): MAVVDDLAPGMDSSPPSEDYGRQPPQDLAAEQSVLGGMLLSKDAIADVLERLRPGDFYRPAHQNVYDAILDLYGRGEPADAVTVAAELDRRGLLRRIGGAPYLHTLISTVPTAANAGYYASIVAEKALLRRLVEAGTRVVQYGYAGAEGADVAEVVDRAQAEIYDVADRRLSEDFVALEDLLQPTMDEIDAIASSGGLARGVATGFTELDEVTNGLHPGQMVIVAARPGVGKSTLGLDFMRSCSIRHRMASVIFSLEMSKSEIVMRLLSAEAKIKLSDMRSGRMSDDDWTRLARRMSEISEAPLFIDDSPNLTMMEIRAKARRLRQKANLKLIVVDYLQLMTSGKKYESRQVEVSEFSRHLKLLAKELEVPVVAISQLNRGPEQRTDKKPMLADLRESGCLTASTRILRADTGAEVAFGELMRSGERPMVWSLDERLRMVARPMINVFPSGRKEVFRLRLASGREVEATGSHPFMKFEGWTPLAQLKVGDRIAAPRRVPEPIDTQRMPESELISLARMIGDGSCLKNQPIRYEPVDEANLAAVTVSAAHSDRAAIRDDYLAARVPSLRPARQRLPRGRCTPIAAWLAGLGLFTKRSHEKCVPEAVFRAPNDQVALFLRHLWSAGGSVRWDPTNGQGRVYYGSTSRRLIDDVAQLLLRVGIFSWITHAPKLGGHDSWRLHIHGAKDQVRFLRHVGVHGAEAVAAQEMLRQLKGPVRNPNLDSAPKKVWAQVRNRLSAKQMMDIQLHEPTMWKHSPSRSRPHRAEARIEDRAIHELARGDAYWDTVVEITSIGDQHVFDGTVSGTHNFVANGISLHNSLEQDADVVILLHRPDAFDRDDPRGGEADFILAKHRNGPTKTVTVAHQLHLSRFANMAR
# Leucine aminopeptidase = target: T8, Leucine aminopeptidase (Plasmodium falciparum 3D7, UniProt Q8IL11); assay: P. falciparum M17LAP inhibitors, primary screen, biochemical, fluorogenic H-Leu-NHMec substrate, 1536-well (AID 1619); assay type: functional
# T8 sequence (Q8IL11 whole entry): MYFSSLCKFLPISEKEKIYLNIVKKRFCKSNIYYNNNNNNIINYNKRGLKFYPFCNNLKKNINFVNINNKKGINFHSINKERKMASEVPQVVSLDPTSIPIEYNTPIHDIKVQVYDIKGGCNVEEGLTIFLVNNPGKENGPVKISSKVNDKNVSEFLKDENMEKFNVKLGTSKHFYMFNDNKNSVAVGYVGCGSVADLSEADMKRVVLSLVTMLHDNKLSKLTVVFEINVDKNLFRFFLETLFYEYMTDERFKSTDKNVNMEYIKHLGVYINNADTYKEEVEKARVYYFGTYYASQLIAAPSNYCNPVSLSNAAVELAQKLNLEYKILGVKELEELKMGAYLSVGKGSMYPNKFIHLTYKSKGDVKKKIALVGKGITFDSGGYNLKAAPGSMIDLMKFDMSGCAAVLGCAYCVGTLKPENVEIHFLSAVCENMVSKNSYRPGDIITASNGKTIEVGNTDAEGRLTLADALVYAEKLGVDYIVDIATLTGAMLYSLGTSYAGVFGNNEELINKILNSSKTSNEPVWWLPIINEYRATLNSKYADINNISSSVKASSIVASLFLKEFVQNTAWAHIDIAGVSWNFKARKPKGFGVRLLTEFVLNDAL
# [16] = target: T6, Voltage-gated N-type calcium channel alpha-1B subunit/Amyloid beta A4 precursor protein-binding family A member 1; assay type: protein assay; remark: listed apart in the source
# [17] = target: T9, Type-1 angiotensin II receptor (Homo sapiens, UniProt P30556); assay: antagonism of angiotensin II type 1 receptor – cell-based, uHTS hits, selectivity assay for APJ receptor antagonist project, dose response (AID 463214); assay type: functional;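 note: antagonist potency against angiotensin II stimulated AT1 response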
# T9 sequence (P30556 whole entry): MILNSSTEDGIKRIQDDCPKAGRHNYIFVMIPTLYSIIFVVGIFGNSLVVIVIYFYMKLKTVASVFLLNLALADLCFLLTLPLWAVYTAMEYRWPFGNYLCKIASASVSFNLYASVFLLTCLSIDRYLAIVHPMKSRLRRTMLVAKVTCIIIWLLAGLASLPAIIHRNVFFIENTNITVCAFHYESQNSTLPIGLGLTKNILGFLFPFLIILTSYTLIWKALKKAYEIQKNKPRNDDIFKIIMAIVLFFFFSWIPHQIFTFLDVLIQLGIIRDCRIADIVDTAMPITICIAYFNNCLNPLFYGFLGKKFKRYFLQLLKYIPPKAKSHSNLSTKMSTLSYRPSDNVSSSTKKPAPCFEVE
# Beta-galactosidase [18] = target: T4, Beta-galactosidase; assay: PubChem AID 485352; assay type: functional
# [19] = mitochondrial function rescue without frataxin homolog – Friedreich's ataxia, plus single-dose screen, dose response (AID 1465); assay type: functional;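 note: yeast depleted of Yfh1p frataxin homolog grown on glycerol needing respiration; WST-1 tetrazolium dye reduction as measure of cellular dehydrogenase metabolic activity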
# T6 sequence (Q00975 whole entry): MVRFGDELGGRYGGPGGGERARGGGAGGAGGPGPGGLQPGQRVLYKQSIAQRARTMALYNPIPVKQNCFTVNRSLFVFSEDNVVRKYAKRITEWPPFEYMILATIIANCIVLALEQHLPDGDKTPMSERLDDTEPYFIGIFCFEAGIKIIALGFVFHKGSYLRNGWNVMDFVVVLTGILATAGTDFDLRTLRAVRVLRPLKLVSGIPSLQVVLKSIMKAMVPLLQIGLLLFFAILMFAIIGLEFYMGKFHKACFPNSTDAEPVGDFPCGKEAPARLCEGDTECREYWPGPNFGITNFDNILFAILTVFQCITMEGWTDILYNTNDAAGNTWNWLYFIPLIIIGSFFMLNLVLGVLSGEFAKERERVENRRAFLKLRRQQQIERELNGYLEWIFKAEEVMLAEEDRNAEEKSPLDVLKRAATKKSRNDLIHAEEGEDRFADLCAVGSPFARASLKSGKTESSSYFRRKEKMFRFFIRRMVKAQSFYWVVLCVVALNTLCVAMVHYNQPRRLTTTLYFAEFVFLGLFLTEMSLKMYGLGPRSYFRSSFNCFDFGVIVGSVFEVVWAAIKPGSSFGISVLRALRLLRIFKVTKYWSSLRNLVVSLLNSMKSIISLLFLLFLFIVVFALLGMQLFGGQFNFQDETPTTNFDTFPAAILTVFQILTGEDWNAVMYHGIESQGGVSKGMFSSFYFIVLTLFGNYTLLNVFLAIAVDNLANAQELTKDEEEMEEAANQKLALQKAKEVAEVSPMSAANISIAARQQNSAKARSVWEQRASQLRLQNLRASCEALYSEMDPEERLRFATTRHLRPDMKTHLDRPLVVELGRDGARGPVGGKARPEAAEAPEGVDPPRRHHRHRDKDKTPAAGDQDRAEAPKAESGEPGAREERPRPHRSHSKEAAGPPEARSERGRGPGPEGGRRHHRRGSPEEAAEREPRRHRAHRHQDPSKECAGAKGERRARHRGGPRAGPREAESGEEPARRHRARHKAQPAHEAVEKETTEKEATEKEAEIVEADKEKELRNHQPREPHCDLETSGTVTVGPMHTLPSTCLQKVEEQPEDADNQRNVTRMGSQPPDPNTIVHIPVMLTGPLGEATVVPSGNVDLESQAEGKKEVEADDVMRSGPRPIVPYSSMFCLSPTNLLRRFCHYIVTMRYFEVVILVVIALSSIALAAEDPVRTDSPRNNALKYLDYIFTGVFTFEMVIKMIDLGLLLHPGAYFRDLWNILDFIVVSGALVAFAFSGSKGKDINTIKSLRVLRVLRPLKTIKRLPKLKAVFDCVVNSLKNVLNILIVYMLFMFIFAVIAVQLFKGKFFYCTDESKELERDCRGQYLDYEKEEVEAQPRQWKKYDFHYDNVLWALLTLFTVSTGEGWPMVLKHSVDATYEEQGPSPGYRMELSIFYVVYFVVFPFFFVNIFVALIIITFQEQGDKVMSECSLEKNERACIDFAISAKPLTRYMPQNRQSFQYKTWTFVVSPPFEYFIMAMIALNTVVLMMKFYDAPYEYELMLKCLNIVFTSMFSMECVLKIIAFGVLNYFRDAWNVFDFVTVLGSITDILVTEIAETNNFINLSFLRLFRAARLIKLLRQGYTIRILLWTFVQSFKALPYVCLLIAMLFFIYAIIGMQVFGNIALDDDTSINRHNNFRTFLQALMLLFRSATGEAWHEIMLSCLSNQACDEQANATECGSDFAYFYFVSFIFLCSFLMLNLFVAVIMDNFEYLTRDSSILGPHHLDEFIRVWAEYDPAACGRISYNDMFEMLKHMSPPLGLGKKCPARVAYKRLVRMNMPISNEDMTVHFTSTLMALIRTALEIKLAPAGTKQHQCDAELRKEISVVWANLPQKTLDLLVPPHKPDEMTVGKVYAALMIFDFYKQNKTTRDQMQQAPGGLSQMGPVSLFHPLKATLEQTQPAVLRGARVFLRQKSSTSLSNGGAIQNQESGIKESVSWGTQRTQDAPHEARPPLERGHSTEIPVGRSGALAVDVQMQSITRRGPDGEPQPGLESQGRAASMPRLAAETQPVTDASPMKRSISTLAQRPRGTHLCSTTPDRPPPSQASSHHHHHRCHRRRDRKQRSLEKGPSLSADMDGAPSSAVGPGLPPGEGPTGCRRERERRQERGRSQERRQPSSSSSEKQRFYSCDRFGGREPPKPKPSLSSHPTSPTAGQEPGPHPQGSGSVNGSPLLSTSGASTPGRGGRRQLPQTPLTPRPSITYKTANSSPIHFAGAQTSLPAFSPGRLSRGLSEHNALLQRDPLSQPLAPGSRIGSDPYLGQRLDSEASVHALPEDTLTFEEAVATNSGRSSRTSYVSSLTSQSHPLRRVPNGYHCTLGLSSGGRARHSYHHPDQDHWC
# T6 sequence (Q02410 whole entry): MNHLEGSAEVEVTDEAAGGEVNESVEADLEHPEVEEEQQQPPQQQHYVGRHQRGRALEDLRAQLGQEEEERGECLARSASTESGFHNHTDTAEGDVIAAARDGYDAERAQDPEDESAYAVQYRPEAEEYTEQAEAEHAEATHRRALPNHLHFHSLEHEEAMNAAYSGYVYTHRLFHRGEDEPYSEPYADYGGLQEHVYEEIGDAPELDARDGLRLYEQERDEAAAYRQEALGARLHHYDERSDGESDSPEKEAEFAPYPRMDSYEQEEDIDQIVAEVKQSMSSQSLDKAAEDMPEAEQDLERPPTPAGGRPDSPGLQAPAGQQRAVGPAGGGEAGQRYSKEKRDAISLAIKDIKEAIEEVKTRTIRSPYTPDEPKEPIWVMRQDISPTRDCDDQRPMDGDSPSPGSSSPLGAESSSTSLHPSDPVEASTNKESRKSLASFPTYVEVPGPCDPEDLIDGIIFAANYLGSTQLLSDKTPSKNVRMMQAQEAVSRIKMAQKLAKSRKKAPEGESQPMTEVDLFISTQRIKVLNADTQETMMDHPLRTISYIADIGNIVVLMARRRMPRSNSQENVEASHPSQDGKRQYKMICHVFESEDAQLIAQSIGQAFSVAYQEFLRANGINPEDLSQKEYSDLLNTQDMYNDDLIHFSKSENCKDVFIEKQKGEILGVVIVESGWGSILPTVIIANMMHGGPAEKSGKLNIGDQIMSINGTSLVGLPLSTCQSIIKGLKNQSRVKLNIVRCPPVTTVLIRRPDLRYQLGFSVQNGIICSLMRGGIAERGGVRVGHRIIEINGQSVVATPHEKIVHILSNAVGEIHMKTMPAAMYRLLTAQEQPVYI
# T4 sequence (Q8VNN2 whole entry): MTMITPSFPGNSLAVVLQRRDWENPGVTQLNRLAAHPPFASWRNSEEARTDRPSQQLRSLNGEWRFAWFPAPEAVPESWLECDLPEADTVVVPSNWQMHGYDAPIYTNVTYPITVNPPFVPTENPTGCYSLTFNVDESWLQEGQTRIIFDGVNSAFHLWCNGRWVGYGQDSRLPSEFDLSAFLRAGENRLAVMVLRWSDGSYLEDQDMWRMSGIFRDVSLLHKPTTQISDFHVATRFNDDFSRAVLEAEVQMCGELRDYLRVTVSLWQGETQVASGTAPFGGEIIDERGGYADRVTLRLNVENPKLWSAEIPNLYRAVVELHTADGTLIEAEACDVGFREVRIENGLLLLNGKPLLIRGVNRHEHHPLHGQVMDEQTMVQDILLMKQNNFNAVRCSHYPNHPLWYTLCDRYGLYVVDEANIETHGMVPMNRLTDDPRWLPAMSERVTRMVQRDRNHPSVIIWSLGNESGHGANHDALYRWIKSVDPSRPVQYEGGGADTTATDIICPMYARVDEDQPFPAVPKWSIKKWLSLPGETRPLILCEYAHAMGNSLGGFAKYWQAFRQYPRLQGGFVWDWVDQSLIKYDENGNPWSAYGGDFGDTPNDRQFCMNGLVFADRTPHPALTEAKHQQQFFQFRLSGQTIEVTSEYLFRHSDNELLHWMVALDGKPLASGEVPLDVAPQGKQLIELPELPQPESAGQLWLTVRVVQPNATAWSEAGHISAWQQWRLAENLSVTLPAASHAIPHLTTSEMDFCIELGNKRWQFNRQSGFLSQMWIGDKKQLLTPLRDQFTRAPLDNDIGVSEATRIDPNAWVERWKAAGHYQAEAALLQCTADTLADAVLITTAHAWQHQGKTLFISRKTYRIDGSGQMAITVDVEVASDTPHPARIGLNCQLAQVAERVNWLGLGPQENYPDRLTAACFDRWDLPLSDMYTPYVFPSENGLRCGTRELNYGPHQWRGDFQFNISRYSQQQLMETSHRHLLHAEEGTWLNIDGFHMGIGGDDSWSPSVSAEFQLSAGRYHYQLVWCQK
# Eukaryotic translation initiation factor 4E, sequence (P63073 whole entry): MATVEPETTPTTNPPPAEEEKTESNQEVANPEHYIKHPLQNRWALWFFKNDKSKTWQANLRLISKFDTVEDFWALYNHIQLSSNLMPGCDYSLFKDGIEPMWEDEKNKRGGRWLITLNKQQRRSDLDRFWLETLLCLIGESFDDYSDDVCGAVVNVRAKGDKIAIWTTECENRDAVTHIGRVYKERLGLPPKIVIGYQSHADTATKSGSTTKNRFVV
# Nonstructural protein 1, sequence (Q194T2 whole entry): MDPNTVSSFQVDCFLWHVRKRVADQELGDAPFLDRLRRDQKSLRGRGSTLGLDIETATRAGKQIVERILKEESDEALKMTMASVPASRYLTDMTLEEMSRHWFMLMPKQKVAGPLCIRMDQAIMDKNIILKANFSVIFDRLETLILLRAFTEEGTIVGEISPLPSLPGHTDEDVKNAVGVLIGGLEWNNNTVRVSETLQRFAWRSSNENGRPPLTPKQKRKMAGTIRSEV
# G-protein coupled receptor 55, sequence (Q9Y2T6 whole entry): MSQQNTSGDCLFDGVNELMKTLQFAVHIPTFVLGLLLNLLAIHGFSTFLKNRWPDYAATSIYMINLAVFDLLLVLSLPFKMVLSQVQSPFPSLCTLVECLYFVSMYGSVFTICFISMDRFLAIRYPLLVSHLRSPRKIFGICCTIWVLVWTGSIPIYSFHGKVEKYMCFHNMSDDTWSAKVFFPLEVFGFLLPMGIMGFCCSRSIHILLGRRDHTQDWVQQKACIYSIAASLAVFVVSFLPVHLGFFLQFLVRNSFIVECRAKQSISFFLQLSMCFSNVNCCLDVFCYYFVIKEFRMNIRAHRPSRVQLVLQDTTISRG
smiles,measurement,setting,value
Clc1ccc(-c2csc(Nc3ccccc3)[n+]2Cc2ccco2)c(Cl)c1,EC50,[1],12.3 µM (active)
same,EC50,[2],> 120 µM (not active)
same,EC50,Streptokinase A,2.27 µM (active)
same,EC50,H4,51.2 µM (active)
same,IC50,[3],> 35 µM (not active)
same,IC50,[4],> 35 µM (not active)
same,EC50,Streptococcus,> 150 µM (not active)
Cc1ccccc1/C=C/c1nc2ccccc2c(=O)n1CCc1ccccc1,IC50,[5],4.26 µM (active)
same,IC50,[6],5.52 µM (active)
COc1cc([N+](=O)[O-])cc(/C=C2/SC(=S)N(Cc3ccccc3)C2=O)c1O,IC50,[7],8.82 µM (active)
OC1(c2ccccc2)CCN(Cc2ccccc2)C2CCCCC21 (centres undefined),IC50,[5],10.2 µM (not active)
same,IC50,[6],4.38 µM (active)
CN(c1ccc(C(=O)Nc2ccccc2Sc2ccccc2)cc1)S(C)(=O)=O,CC50,[8],> 40 µM (active)
O=C(O)c1ccc(N2C(=O)/C(=C/c3ccc(-c4ccc([N+](=O)[O-])cc4)o3)C=C2c2ccccc2)cc1,IC50,[9],0.417 µM (active)
same,IC50,[10],< 0.5 µM (active)
same,IC50,Beta-galactosidase [11],33.8 µM (active)
same,IC50,[12],9.86 µM (active) and 3.93 µM (active)
same,EC50,Protein RecA,> 380 µM (inactive)
same,IC50,[13],> 50 µM (inactive)
same,CC50,[14],15.8 µM (active)
same,IC50,Nonstructural protein 1,6.04 µM (active)
same,AC50,[15],56.7 µM (active)
same,IC50,Leucine aminopeptidase,21.4 µM (active)
same,IC50,[7],> 50 µM (active)
same,IC50,[16],5.56 µM (active)
Cc1ccc(N/N=C2/C(=O)Nn3c2nc(C)cc3=O)cc1,IC50,[17],> 40 µM (not active)
same,EC50,Beta-galactosidase [18],> 40 µM (inactive)
same,EC50,[19],> 100 µM (active)
same,IC50,Leucine aminopeptidase,86.1 µM (active)
